Laboratory results from ChEMBL document CHEMBL4417636, “Small molecule inhibitors of pendrin ion exchange and pharmaceutical compositions” (2017).
Active and inactive are the calls of the source. No cut-off for these calls is given here.

Tests used:
[1] = organism: Homo sapiens; experiment: Effect on airway surface liquid pH in IL13-stimulated NHBE cells at 25 uM by pH-sensitive fluorophore BCECF based fluorescence based assay; assay type: functional, cell-based
[2] = molecular target: T1, Pendrin (Homo sapiens) (UniProt O43511); experiment: Inhibition of human pendrin expressed in FRT cells co-expressing EYFP-HIF assessed as reduction in pendrin-mediated C17HCO3(-) exchange by measuring reduction in cytoplasmic alkalinization exchange at 2.5 uM by pH-sensitive fluorescent probe BCECF-AM based fluorescence assay relative to control; assay type: cell-based
T1 sequence (whole entry): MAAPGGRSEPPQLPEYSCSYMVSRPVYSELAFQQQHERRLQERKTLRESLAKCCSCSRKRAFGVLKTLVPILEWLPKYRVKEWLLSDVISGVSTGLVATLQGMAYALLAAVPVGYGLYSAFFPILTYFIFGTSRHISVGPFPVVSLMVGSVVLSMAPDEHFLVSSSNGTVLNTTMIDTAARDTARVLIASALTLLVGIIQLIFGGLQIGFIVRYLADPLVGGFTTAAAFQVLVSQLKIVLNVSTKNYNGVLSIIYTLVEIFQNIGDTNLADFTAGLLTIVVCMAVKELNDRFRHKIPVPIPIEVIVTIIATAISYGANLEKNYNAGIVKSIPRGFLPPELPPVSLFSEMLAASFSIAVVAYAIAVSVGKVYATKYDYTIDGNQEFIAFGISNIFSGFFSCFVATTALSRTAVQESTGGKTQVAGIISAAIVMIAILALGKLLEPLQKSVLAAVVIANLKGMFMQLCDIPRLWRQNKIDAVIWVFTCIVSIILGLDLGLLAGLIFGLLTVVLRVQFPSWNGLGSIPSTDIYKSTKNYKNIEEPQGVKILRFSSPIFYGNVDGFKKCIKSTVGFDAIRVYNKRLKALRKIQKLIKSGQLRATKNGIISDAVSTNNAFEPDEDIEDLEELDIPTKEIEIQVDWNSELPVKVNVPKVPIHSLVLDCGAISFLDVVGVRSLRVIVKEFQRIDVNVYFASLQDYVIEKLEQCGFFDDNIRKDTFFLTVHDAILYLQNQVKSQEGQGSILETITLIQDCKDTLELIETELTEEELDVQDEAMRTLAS

[3] = molecular target: Cystic fibrosis transmembrane conductance regulator (Homo sapiens) (UniProt P13569); experiment: Inhibition of CFTR in human bronchial epithelial cells assessed as effect on short-circuit current at 25 uM pre-incubated for 30 mins
Sequence of Cystic fibrosis transmembrane conductance regulator (Homo sapiens) (P13569 whole entry, looked up): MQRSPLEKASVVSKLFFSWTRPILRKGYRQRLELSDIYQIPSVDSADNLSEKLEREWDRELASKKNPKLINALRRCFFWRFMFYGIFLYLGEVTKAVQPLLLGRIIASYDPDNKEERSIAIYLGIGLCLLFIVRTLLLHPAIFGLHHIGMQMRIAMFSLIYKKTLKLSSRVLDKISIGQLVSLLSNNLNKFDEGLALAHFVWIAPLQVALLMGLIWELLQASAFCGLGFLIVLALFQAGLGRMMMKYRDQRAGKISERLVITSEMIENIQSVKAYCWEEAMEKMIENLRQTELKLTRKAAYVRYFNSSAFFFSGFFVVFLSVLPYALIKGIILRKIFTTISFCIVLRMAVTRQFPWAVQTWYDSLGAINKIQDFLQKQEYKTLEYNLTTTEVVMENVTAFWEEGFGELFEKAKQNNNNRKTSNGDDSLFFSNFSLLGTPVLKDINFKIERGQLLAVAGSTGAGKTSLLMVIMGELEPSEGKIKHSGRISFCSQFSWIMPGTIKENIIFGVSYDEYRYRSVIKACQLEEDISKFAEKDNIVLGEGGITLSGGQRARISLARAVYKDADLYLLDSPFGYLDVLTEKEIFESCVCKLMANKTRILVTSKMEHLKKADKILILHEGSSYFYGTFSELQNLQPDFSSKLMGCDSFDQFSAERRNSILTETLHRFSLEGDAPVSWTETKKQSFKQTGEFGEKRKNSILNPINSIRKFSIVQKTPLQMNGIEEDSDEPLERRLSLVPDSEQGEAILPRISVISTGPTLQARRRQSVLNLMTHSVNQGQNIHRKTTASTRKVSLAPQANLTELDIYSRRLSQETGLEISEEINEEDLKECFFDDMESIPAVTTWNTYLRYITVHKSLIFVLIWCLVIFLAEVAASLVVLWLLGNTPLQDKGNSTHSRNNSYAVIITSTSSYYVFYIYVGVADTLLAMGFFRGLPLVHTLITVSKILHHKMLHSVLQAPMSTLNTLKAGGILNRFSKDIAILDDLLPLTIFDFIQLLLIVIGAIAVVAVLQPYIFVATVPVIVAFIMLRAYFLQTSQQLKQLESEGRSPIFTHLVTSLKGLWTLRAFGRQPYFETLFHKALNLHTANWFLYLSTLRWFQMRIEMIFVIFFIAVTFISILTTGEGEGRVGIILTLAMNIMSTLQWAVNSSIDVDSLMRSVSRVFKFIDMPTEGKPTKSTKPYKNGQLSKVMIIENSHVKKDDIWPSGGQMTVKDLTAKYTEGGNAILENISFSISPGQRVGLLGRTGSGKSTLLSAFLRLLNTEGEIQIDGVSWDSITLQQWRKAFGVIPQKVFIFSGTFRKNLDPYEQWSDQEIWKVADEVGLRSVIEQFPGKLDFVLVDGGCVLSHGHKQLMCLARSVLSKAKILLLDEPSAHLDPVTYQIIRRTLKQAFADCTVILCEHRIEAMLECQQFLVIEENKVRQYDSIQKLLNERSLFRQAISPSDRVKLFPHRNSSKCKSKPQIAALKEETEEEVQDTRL

[4] = molecular target: T2, Solute carrier family 12 member 2 (Homo sapiens) (UniProt P55011); experiment: Inhibition of human NKCC1 expressed in COS7 co-expressing EYFP-HIF assessed as effect on I(-) gradient at 25 uM by YFP-based fluorescence quenching assay
T2 sequence (whole entry): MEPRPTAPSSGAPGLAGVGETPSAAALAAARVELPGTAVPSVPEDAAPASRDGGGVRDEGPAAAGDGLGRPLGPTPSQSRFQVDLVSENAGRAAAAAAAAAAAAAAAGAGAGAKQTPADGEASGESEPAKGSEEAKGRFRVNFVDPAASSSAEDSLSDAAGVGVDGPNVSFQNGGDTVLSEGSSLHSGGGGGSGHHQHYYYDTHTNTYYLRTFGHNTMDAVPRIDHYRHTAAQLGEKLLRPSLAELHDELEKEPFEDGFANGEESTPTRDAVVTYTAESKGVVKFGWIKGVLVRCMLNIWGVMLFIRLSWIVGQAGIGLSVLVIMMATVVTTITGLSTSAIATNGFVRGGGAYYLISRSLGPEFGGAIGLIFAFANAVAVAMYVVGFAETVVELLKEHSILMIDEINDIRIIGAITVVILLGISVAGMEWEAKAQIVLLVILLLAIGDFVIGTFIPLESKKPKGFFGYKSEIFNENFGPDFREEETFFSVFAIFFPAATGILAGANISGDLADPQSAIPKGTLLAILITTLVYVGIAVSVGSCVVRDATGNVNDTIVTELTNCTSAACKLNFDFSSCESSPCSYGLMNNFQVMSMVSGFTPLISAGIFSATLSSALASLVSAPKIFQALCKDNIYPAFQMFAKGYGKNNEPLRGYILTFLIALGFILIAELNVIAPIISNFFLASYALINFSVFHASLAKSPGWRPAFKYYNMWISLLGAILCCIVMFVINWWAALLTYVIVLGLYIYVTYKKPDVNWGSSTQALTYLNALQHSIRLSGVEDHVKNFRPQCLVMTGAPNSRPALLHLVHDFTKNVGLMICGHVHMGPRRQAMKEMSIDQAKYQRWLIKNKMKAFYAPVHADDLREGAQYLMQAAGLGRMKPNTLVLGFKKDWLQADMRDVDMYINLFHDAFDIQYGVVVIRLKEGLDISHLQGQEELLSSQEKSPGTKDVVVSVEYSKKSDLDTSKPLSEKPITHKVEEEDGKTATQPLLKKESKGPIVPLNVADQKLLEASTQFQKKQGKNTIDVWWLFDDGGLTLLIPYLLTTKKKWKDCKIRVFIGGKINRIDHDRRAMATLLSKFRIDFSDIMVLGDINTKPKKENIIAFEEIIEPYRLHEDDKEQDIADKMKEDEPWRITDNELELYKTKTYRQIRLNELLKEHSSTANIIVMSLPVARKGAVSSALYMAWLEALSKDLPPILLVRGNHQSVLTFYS

[5] = test system: Mus musculus; experiment: Potentiation of 20 mg/kg, ip furosemide-induced acute diuretic action in CD1 mouse assessed as effect on urine pH at 50 mg/kg, ip relative to control; assay type: functional, organism-based
[6] = test system: Mus musculus; experiment: Potentiation of 20 mg/kg, ip furosemide-induced acute diuretic action in CD1 mouse assessed as increase in urinary Na+ excretion at 10 mg/kg, ip measured at 3 hrs relative to control; assay type: functional, organism-based

SMILES: Cn1nc(COc2cccc(F)c2)c2c1CCN(C(=O)Nc1ccc(Cl)cc1)C2
- Activity [1]: inactive
- inhibition [2]: 50%
- inhibition [3]: inactive

SMILES: Cc1n[nH]c(-c2cc(S(=O)(=O)NC3CCCc4ccccc43)c(C)s2)c1C (stereo unspecified)
- inhibition [4]: inactive
- Activity [5]: inactive
- Activity [6]: Active
